From US12240840B2, “Amide-substituted heterocyclic compounds for the treatment of conditions related to the modulation of IL-12, IL-23 and/or IFN-alpha” (BRISTOL-MYERS SQUIBB COMPANY, priority 2018, dated 2025) come the findings set out here.

For the experiment, the system named is IFNα-induced pSTAT5 (pY694) in CD3 positive cells of human whole blood. Description: IFNα-Induced STAT Phosphorylation in Human Whole Blood. It counts as cell-based. The conditions noted are these: 1 h compound incubation, 1000 U/mL recombinant human IFNα A/D for 15 min, pSTAT5 in CD3 positive population, read-out: Human WB IFNα-Induced Stat Phosph. (IC50). The procedure, abridged: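 Read-out is median fluorescence intensity of pSTAT5 (pY694) in the CD3-positive gate, by flow cytometry after fix/lyse and permeabilization. Before that, whole human blood anticoagulated with EDTA or ACD-A received compound for an hour and 1000 U/mL IFNα A/D for 15 min.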

Structures are written as SMILES. Read-outs that look alike come from different tables or passages of the source.

Take `[2H]C([2H])([2H])NC(=O)c1nnc(NC(=O)C2CC2)cc1Nc1cccc(-c2ncc(C(=O)NCCC(C)C)s2)c1OC` [Example 305]: for the setting “Homo sapiens”, the IC50 (in general, the concentration needed to halve the response being measured) was 0.22 µM.

`[2H]C([2H])([2H])NC(=O)c1nnc(NC(=O)C2CC2)cc1Nc1cccc(-c2cnn(CCNC(C)=O)c2)c1OC` [Example 563, 4-((3-(1-(2-acetamidoethyl)-1H-pyrazol-4-yl)-2-methoxyphenyl)amino)-6-(cyclopropanecarboxamido)-N-(methyl-d3)pyridazine-3-carboxamide]: the IC50 came out at 3.12 µM. As to `[2H]C([2H])([2H])NC(=O)c1nnc(NC(=O)C2CC2)cc1Nc1cccc(-c2nc(CN3CCN(C(=O)C4CC4)CC3)no2)c1OC` [Example 132], the IC50 (Homo sapiens) came out at 0.3 µM. On the same count and under the same terms, next, `[2H]C([2H])([2H])NC(=O)c1nnc(NC(=O)C2CC2)cc1Nc1cccc(-c2ncc(CC(=O)NCCOC)o2)c1OC` [Example 411]: 1.8 µM; `[2H]C([2H])([2H])NC(=O)c1nnc(NC(=O)C2CC2)cc1Nc1cccc(-c2ncc(C(=O)N3CCC(N(C)C)CC3)s2)c1OC` [Example 315]: 0.022 µM; `COc1c(Nc2cc(NC(=O)C3CC3)nnc2C(N)=O)cccc1-c1ncc(C(=O)NCC(O)CO)o1` (stereo not drawn) [Example 420]: 0.22 µM. Same read-out and setting: next, `[2H]C([2H])([2H])NC(=O)c1nnc(Nc2ccc(OC)nn2)cc1Nc1cccc(-c2ncc(CNS(C)(=O)=O)s2)c1OC` [Example 390]: 0.24 µM; `[2H]C([2H])([2H])NC(=O)c1nnc(NC(=O)C2CC2)cc1Nc1cccc(-c2ncc(C(=O)NCC3CCN(C)C3)s2)c1OC` (stereo not drawn) [Example 326]: 0.03 µM; `[2H]C([2H])([2H])NC(=O)c1nnc(NC(=O)C2CC2)cc1Nc1cccc(-c2cc(C(=O)N(C)CCN(C)C)n(C)n2)c1OC` [Example 526]: 0.52 µM. Same read-out and setting: next, `[2H]C([2H])([2H])NC(=O)c1nnc(NC(=O)C2CC2)cc1Nc1cccc(-c2nc(C)c(C(=O)N3CCC(N4CCCC4)CC3)s2)c1OC` [Example 361]: 0.19 µM. Turning to `[2H]C([2H])([2H])NC(=O)c1nnc(Nc2cnc(OC)cn2)cc1Nc1cccc(-c2csc(C(=O)N3CCOCC3)n2)c1OC` [Example 564], the IC50 (Homo sapiens) was greater than 10 µM. The same measure, in the same setting: next, `[2H]C([2H])([2H])NC(=O)c1nnc(NC(=O)C2CC2)cc1Nc1cccc(-c2ncc(C(C)(C)O)s2)c1OC` [Example 267]: 0.15 µM. On the same count and under the same terms, next, `[2H]C([2H])([2H])NC(=O)c1cnc(NC(=O)C2CC2)cc1Nc1cccc(-c2nc(C3(NC(=O)OC(C)(C)C)CC3)no2)c1OC` [Example 213]: 4.44 µM. The same measure, in the same setting: the result for `[2H]C([2H])([2H])NC(=O)c1nnc(NC(=O)C2CC2)cc1Nc1cccc(-c2nc([C@@H](NC(=O)OC)[C@@H](C)O)no2)c1OC` [Example 188] reads 1.27 µM; that for `[2H]C([2H])([2H])NC(=O)c1nnc(NC(=O)C2CC2)cc1Nc1cccc(-c2nc(CNC(=O)CN(C)C(=O)OC(C)(C)C)no2)c1OC` [Example 153], greater than 10 µM; that for `[2H]C([2H])([2H])NC(=O)c1nnc(NC(=O)C2CC2)cc1Nc1cccc(-c2ncc(C(=O)NC(C)C)s2)c1OC` [Example 303], 0.1 µM. Regarding `[2H]C([2H])([2H])NC(=O)c1nnc(NC(=O)C2CC2)cc1Nc1cccc(-c2ncc(N)s2)c1OC` [Example 282], the IC50 (Homo sapiens) came to 0.18 µM. The same measure, in the same setting: the result for `[2H]C([2H])([2H])NC(=O)c1nnc(NC(=O)C2CC2)cc1Nc1cccc(-c2csc(C(=O)NCCOC)n2)c1OC` [Example 566] reads 0.68 µM; that for `[2H]C([2H])([2H])NC(=O)c1nnc(NC(=O)C2CC2)cc1Nc1cccc(-c2noc(C3(O)CC3)n2)c1OC` [Example 74], 0.17 µM; that for `[2H]C([2H])([2H])NC(=O)c1nnc(NC(=O)C2CC2)cc1Nc1cccc(-c2ncc(C(=O)NCC(O)CN3CCCC3=O)s2)c1OC` (stereo not drawn) [Example 332], 0.04 µM. Same read-out and setting: next, `[2H]C([2H])([2H])NC(=O)c1nnc(NC(=O)C2CC2)cc1Nc1cccc(-c2ncc(CNS(C)(=O)=O)s2)c1OC` [Example 265]: 0.53 µM.
